Consider 26 compounds from patent US20250177383A1, “DI-CYCLOPROPYL BASED IL-17A MODULATORS AND USES THEREOF” (DICE ALPHA, INC., priority 2022, published 2025).

In one assay the target is T1, IL-17A/A (Homo sapiens, UniProt Q16552).
T1 sequence (Q16552 24-155): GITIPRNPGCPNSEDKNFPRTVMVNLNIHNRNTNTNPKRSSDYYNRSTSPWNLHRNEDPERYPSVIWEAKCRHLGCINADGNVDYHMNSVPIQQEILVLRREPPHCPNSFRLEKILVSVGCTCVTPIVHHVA
Kind of assay: IL-17A/A HEK-Blue Cell Assay. The format is cell-based. The note with it: HEK-Blue IL-17 reporter cells, IL-17A/A stimulation, 20 hours, SEAP readout; for IC50: read-out: IL17 AA HEK-5 pIC50 (converted). The method in brief: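 Cells co-expressing IL-17RA, IL-17RC and Act1 received titrated compound, top final 10 uM in 0.1% DMSO, immediately before IL-17A/A stimulation.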

Another assay concerns the target T2, IL-17A/F (Homo sapiens, UniProt Q16552+Q96PD4).
T2 sequence (Q16552 24-155): T1 sequence (Q16552 24-155)
T2 sequence (Q96PD4 31-163): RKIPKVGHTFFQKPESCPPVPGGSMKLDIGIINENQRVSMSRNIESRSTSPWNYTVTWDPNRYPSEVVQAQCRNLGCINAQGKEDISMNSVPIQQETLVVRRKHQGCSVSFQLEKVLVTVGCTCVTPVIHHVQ
The experiment in a line: IL-17A/F HEK-Blue Cell Assay. The note with it: HEK-Blue IL-17 reporter cells, IL-17A/F stimulation, 20 hours, SEAP readout; for IC50: read-out: IL17AF HEK Blue pIC50 (converted). The format is cell-based. The procedure: The HEK-Blue IL-17 reporter cell line (Fisher #NC1408637) was used for cell-based IL-17A/F inhibition assays. Cells were grown and prepared for assays according to the manufacturer's instructions. This cell line consists of HEK 293 cells that were designed to expressed IL-17RA, IL-17R^C, and the ActI adapter molecule, the combination of which, when stimulated by IL-17A/A activates a NFκB promoter and drives expression of a recombinant Secreted Alkaline Phosphatase (SEAP) geneprotein. Media from the cells is then added to a development reagent (Quanti-Blue Substrate, Fisher #NC9711613), and read at A630.
Compounds were titrated in DMSO and added to the cells immediately before adding IL-17A/A (Custom from R&D systems, untagged IL-17A/F+BSA as a carrier protein). The cells, compound, and IL-17A/A were then incubated for 20 hours before media was removed for SEAP analysis. The resulting inhibition curve was then analyzed using a Dotmatics screening protocol, and IC50 values were determined using a 4-parameter nonlinear fit. DMSO was added to a universal final concentration of 0.1% to optimize background.

Take `CCC(OC)C(=O)N[C@@H](C(=O)N1CCN(C)[C@H](C)C1)[C@@H](C)c1ccc(NC(=O)[C@@H](NC(=O)c2ccnn2CC)C(C2CC2)C2CC2)c(F)c1` (single isomer, unassigned) [Compound 335]: the figures for the IC50 on IL-17A/A and at IL-17A/F were 10 to 100 nM and 100 to 10000 nM, respectively.
On the same counts, the results for `CCn1nccc1C(=O)N[C@H](C(=O)Nc1ccc([C@H](C)[C@@H](NC(=O)[C@H](C)OC)C(=O)N2CCN(C)CC2)cc1F)C(C1CC1)C1CC1` [Compound 222] are less than 10 nM and 10 to 100 nM.
The corresponding values for `CCn1nccc1C(=O)N[C@H](C(=O)Nc1ccc([C@H](C)[C@@H](NC(=O)COC)C(=O)N2C[C@@H](C)N(C)C[C@H]2C)cc1F)C(C1CC1)C1CC1` [Compound 286] are less than 10 nM and 10 to 100 nM.
As to `CO[C@@H](C)C(=O)N[C@@H](C(=O)N1CCN(C)C[C@@H]1C)[C@@H](C)c1ccc(NC(=O)[C@@H](NC(=O)C2(F)CC2)C(C2CC2)C2CC2)c(F)c1` [Compound 285], the IC50 on IL-17A/A was 10 to 100 nM; on IL-17A/F, 100 to 10000 nM.
`CCOC(=O)N[C@@H](CF)C(=O)N[C@@H](C(=O)N1CCN(C)[C@H](C)C1)[C@@H](C)c1ccc(NC(=O)[C@@H](NC(=O)c2nonc2C)C(C2CC2)C2CC2)c(F)c1` [Compound 363]: the results for the IC50 on IL-17A/A and at IL-17A/F were less than 10 nM and 10 to 100 nM, respectively.
On to `CCn1nccc1C(=O)N[C@H](C(=O)Nc1ccc([C@H](C)[C@@H](NC(=O)C(C)Cc2cc(O)no2)C(=O)N2CCN(C)[C@H](C)C2)cc1F)C(C1CC1)C1CC1` (single isomer, unassigned) [Compound 343], for which the results for the IC50 at IL-17A/A and at IL-17A/F were 10 to 100 nM and 100 to 10000 nM, respectively.
In the case of `CCn1nccc1C(=O)N[C@H](C(=O)Nc1ccc([C@H](C)[C@@H](NC(=O)C(C)CC(F)(F)F)C(=O)N2CCN(C)CC2)cc1F)C(C1CC1)C1CC1` (single isomer, unassigned) [Compound 332], the “IL17 AA HEK-5 pIC50” value on IL-17A/A is “B (8>B≥7 as B)”. Besides, the IC50 on IL-17A/F is 10 to 100 nM.
In the case of `CCC(OC)C(=O)N[C@@H](C(=O)N1CCN(C)[C@H](C)C1)[C@@H](C)c1ccc(NC(=O)[C@@H](NC(=O)c2ccnn2CC)C(C2CC2)C2CC2)c(F)c1` (single isomer, unassigned) [Compound 338], the IC50 at IL-17A/A was less than 10 nM; at IL-17A/F it was 10 to 100 nM.
Turning to `COC(=O)N1CC[C@H]1C(=O)N[C@@H](C(=O)N1CCN(C)[C@H](C)C1)[C@@H](C)c1ccc(NC(=O)[C@@H](NC(=O)C2(F)CC2)C(C2CC2)C2CC2)c(F)c1` [Compound 278], the results for the IC50 at IL-17A/A and at IL-17A/F were less than 10 nM and 100 to 10000 nM, respectively.
The corresponding values for `COCC(=O)N[C@@H](C(=O)N1CCN(C)CC1)[C@@H](C)c1ccc(NC(=O)[C@@H](NC(=O)c2nonc2C)C(C2CC2)C2CC2)c(F)c1` [Compound 346] are 10 to 100 nM and 100 to 10000 nM.
Regarding `CCn1nccc1C(=O)N[C@H](C(=O)Nc1ccc([C@H](C)[C@@H](NC(=O)C(C)OCCOC)C(=O)N2CCN(C)CC2)cc1F)C(C1CC1)C1CC1` (single isomer, unassigned) [Compound 315], the IC50 at IL-17A/A is 10 to 100 nM. The “IL17AF HEK Blue pIC50” value on IL-17A/F is recorded as “C (7>C≥5)”.
Regarding `CCOC(=O)N[C@@H](CF)C(=O)N[C@@H](C(=O)N1CCN(C)CC1)[C@@H](C)c1ccc(NC(=O)[C@@H](NC(=O)C2(F)CC2)C(C2CC2)C2CC2)c(F)c1` [Compound 359], the values for the IC50 at IL-17A/A and on IL-17A/F were less than 10 nM and 100 to 10000 nM, respectively.
The corresponding values for `CO[C@@H](C)C(=O)N[C@@H](C(=O)N1C[C@H]2CC[C@@H](C1)N2C)[C@@H](C)c1ccc(NC(=O)[C@@H](NC(=O)C2(F)CC2)C(C2CC2)C2CC2)c(F)c1` [Compound 294] are 10 to 100 nM and 100 to 10000 nM.
On the same counts, the results for `CCn1nccc1C(=O)N[C@H](C(=O)Nc1ccc(C(C(NC(=O)[C@H](C)OC)C(=O)N2CCN(C)[C@H](C)C2)C(F)(F)F)cc1F)C(C1CC1)C1CC1` (single isomer, unassigned) [Compound 351] are 100 to 10000 nM and 100 to 10000 nM.
On to `CCn1nccc1C(=O)N[C@H](C(=O)Nc1ccc([C@H](C)[C@@H](NC(=O)C(C)C2CC2)C(=O)N2CCN(C)[C@H](C)C2)cc1F)C(C1CC1)C1CC1` (single isomer, unassigned) [Compound 309], for which the IC50 on IL-17A/A and at IL-17A/F was less than 10 nM throughout.
Consider `CO[C@@H](C)C(=O)N[C@@H](C(=O)N1CCN(C)[C@H](C)C1)[C@@H](C)c1ccc(NC(=O)[C@@H](NC(=O)c2nonc2C)C(C2CC2)C2CC2)c(F)c1` [Compound 308], for which the IC50 at IL-17A/A is less than 10 nM; on IL-17A/F it was 100 to 10000 nM.
As for `COCC(=O)N[C@@H](C(=O)N1CCN(C)[C@H](C)C1)[C@@H](C)c1ccc(NC(=O)[C@@H](NC(=O)c2nonc2C)C(C2CC2)C2CC2)c(F)c1` [Compound 348], the figures for the IC50 at IL-17A/A and on IL-17A/F were less than 10 nM and 100 to 10000 nM, respectively.
On to `CCOC(C)C(=O)N[C@@H](C(=O)N1CCN(C)[C@H](C)C1)[C@@H](C)c1ccc(NC(=O)[C@@H](NC(=O)C2(F)CC2)C(C2CC2)C2CC2)c(F)c1` (single isomer, unassigned) [Compound 321], for which the IC50 on IL-17A/A is 10 to 100 nM; at IL-17A/F, 100 to 10000 nM.
As for `CCn1nccc1C(=O)N[C@H](C(=O)Nc1ccc([C@H](C)[C@@H](NC(=O)[C@H](C)N(C)c2ncncn2)C(=O)N2CCN(C)[C@H](C)C2)cc1F)C(C1CC1)C1CC1` [Compound 305], the IC50 at IL-17A/A and at IL-17A/F was less than 10 nM in each case.
For the compound `CCOC(C)C(=O)N[C@@H](C(=O)N1CCN(C)CC1)[C@@H](C)c1ccc(NC(=O)[C@@H](NC(=O)c2ccnn2CC)C(C2CC2)C2CC2)c(F)c1` (single isomer, unassigned) [Compound 329], the IC50 on IL-17A/A is 10 to 100 nM; at IL-17A/F, 100 to 10000 nM.
Regarding `CCn1nccc1C(=O)N[C@H](C(=O)Nc1ccc([C@H](C)[C@@H](NC(=O)[C@H](C)OC)C(=O)N2C[C@@H](C)N(C)C[C@H]2C)cc1F)C(C1CC1)C1CC1` [Compound 287], the IC50 on IL-17A/A and on IL-17A/F was less than 10 nM each time.
Regarding `CCn1nccc1C(=O)N[C@H](C(=O)Nc1ccc([C@H](C)[C@@H](NC(=O)COC)C(=O)N2C[C@@H](C)N(C)[C@@H](C)C2)cc1F)C(C1CC1)C1CC1` [Compound 293], the IC50 at IL-17A/A is less than 10 nM; at IL-17A/F it was 10 to 100 nM.
Consider `CCOC(=O)N[C@@H](C)C(=O)N[C@@H](C(=O)N1CCN(C)[C@H](C)C1)[C@@H](C)c1ccc(NC(=O)[C@@H](NC(=O)C2(F)CC2)C(C2CC2)C2CC2)c(F)c1` [Compound 282], for which the results for the IC50 at IL-17A/A and at IL-17A/F were less than 10 nM and 10 to 100 nM, respectively.
The corresponding values for `CCC(OC)C(=O)N[C@@H](C(=O)N1CCN(C)CC1)[C@@H](C)c1ccc(NC(=O)[C@@H](NC(=O)c2ccnn2CC)C(C2CC2)C2CC2)c(F)c1` (single isomer, unassigned) [Compound 339] are 10 to 100 nM and 100 to 10000 nM.
Consider `CCn1nccc1C(=O)N[C@H](C(=O)Nc1ccc(C(C(NC(=O)[C@H](C)OC)C(=O)N2CCN(C)[C@H](C)C2)C(F)(F)F)cc1F)C(C1CC1)C1CC1` (single isomer, unassigned) [Compound 353], for which the results for the IC50 on IL-17A/A and at IL-17A/F were less than 10 nM and 10 to 100 nM, respectively.
Regarding `CO[C@@H](C)C(=O)N[C@@H](C(=O)N1CCNC(CF)C1)[C@@H](C)c1ccc(NC(=O)[C@@H](NC(=O)C2(F)CC2)C(C2CC2)C2CC2)c(F)c1` (single isomer, unassigned) [Compound 301], the values for the IC50 at IL-17A/A and on IL-17A/F were 10 to 100 nM and 100 to 10000 nM, respectively.
